Patent publication US11147272B2, “Pyridone compounds and agricultural and horticultural fungicides comprising the same as active ingredients” (MITSUI CHEMICALS AGRO, INC., priority 2017, dated 2021)

What was measured:
[1] = test system: Colletotrichum orbiculare; test: Test Example H: Anthracnose on cucumber; conditions: for Test H control value class: Anthracnose on cucumber (Sagami Hanjiro), 2.5 ml/pot, assessed 6 to 10 days after inoculation; for Test H control value: 6 to 10 days after inoculation
Alternaia brassicicola = test: Test Example C: Alternaria sooty spot on cabbage; type: in vivo; conditions: for Test C control value class: class of control value
Description: Seeds of a test plant (cabbage variety: Shikidori) were planted and cultivated until the cotyledons extended.
<Control Value> Control value=100{1−(n/3)}

Magnaporthe grisea = test: whole plant or invertebrate; type: in vivo; conditions: for Test A control value class: class of control value
Plasmopara viticola = test: Test Example G: Downy mildew on vine; conditions: for Test G control value class: Downy mildew on vine (Neomuscat), 2.5 ml/pot, assessed 7 to 10 days after inoculation; for Test G control value: 7 to 10 days after inoculation
Botrytis cinerea = test: Test Example B: Gray mold on tomato; conditions: for Test B control value class: class of control value
Description: Seeds of a test plant (tomato variety: Oogata Fukuju) were planted and cultivated until three to five first leaves (true leaves) appeared. In the test, the inventive compounds were dissolved into dimethyl sulfoxide-methanol mixture solution (volume ratio: 9/1), and the resultant solutions were diluted with well water to a concentration of 250 ppm to obtain the drug solutions. The drug solutions were sprayed to the test plant (2.5 ml/pot). After the drug solutions dried, a conidial suspension (4-8×10^5 conidia/ml) of Botrytis cinerea was inoculated to the plant by spraying. After the inoculation, the plant was kept in a mist chamber at room temperature of 20 to 23° C. for about 48 hours to promote the onset of disease. The degrees of disease development were investigated 2 to 3 days after the inoculation, and the effectiveness of the drug solutions was evaluated.
In Test Examples described above, the degrees of disease development were evaluated in increments of 0.05 from 0 (as no incidence of disease) to 3 (as the degree of disease development in an untreated plant group). Further, control values were calculated using the following equation based on the degree of disease development.
n=Degree of disease development in each treated group
In the table, H: more than 50% control value, L: 50% or less control value, and nt: not tested.

[2] = test system: Blumeria graminis f. sp. hordei; test: Test Example D: Powdery mildew on barley; conditions: for Test D control value class: class of control value
Phytophthora infestans = test: whole plant or invertebrate; type: in vivo; conditions: for Test F control value class: class of control value
Puccinia recondita = test: Test Example E: Brown rust on wheat; type: in vivo; conditions: for Test E control value class: class of control value
[3] = Alternaria sooty spot on cabbage
[4] = 250 ppm drug solution sprayed (2.5 ml/pot), cucumber Sagami Hanjiro
[5] = 250 ppm drug solution sprayed on test plant
[6] = 250 ppm drug solution sprayed (2.5 ml/pot), grape Neomuscat
[7] = Anthracnose on cucumber, 250 ppm spray
[8] = Alternaria sooty spot on cabbage, control value class
[9] = Blast on rice, control value class
[10] = Downy mildew on vine, 250 ppm spray
[11] = Gray mold on tomato, control value class
[12] = Powdery mildew on barley, control value class
[13] = Late blight on tomato, control value class
[14] = Brown rust on wheat, control value class

| Structure (SMILES) | Test H control value class ([1]; 250 ppm spray) | Test C control value class (Alternaia brassicicola; [3]) | Test A control value class (Magnaporthe grisea; Blast on rice) | Test G control value class (Plasmopara viticola; 250 ppm spray) | Test B control value class (Botrytis cinerea; Gray mold on tomato) | Test D control value class ([2]; Powdery mildew on barley) | Test F control value class (Phytophthora infestans; Late blight on tomato) | Test E control value class (Puccinia recondita; Brown rust on wheat) | Test H control value [1, 7] | Test C control value (Alternaia brassicicola; [8]) | Test A control value (Magnaporthe grisea; [9]) | Test G control value (Plasmopara viticola; [10]) | Test B control value (Botrytis cinerea; [11]) | Test D control value [2, 12] | Test F control value (Phytophthora infestans; [13]) | Test E control value (Puccinia recondita; [14]) | also measured |
| --- | --- | --- | --- | --- | --- | --- | --- | --- | --- | --- | --- | --- | --- | --- | --- | --- | --- |
| CCn1c(-c2c(F)cc(OC)cc2F)c(C(C)C)cc(Br)c1=O [compound 12] | H (more than 50% control value) | H (more than 50% control value) | H (more than 50% control value) | H (more than 50% control value) | H (more than 50% control value) | H (more than 50% control value) | L (50% or less control value) | H (more than 50% control value) |  |  |  |  |  |  |  |  |  |
| CCC(=O)c1cc(Cl)c(=O)n(CC)c1-c1c(F)cc(F)cc1F [compound 49] | H (more than 50% control value) | H (more than 50% control value) | H (more than 50% control value) | L (50% or less control value) | H (more than 50% control value) | H (more than 50% control value) | L (50% or less control value) | H (more than 50% control value) |  |  |  |  |  |  |  |  |  |
| CC#CCOc1cc(F)c(-c2c(CCC)ccc(=O)n2CC)c(F)c1 [compound 460] |  |  |  |  |  |  |  |  |  |  |  |  |  |  |  |  | Test H control value [1, 4]: H (more than 50% control value); Test C control value (Alternaia brassicicola; [5]): H (more than 50% control value); Test A control value (Magnaporthe grisea; [5]): H (more than 50% control value); Test G control value (Plasmopara viticola; [6]): H (more than 50% control value); Test B control value (Botrytis cinerea; [5]): H (more than 50% control value); Test D control value [2, 5]: H (more than 50% control value); Test F control value (Phytophthora infestans; [5]): L (50% or less control value); Test E control value (Puccinia recondita; [5]): H (more than 50% control value) |
| C=Cc1cc(Cl)c(=O)n(CC)c1-c1ccc(F)cc1Cl [compound 295] |  |  |  |  |  |  |  |  | L (50% or less control value) | H (more than 50% control value) | L (50% or less control value) | L (50% or less control value) | H (more than 50% control value) | H (more than 50% control value) | H (more than 50% control value) | H (more than 50% control value) |  |
| CCCc1ccc(=S)n(CC)c1-c1c(F)cc(F)cc1F [compound 427] |  |  |  |  |  |  |  |  |  |  |  |  |  |  |  |  | Test H control value [1, 4]: H (more than 50% control value); Test C control value (Alternaia brassicicola; [5]): H (more than 50% control value); Test A control value (Magnaporthe grisea; [5]): L (50% or less control value); Test G control value (Plasmopara viticola; [6]): L (50% or less control value); Test B control value (Botrytis cinerea; [5]): H (more than 50% control value); Test D control value [2, 5]: L (50% or less control value); Test F control value (Phytophthora infestans; [5]): L (50% or less control value); Test E control value (Puccinia recondita; [5]): L (50% or less control value) |
| CCc1ccc(=O)n(CC)c1-c1ccc(F)cc1Br [compound 340] |  |  |  |  |  |  |  |  | L (50% or less control value) | H (more than 50% control value) | L (50% or less control value) | L (50% or less control value) | H (more than 50% control value) | H (more than 50% control value) | L (50% or less control value) | H (more than 50% control value) |  |
| CCn1c(-c2c(F)cc(OC)cc2F)c(C(CC(C)C)OC)cc(Cl)c1=O (centres unmarked) [compound 87] | H (more than 50% control value) | H (more than 50% control value) | L (50% or less control value) | L (50% or less control value) | H (more than 50% control value) | H (more than 50% control value) | L (50% or less control value) | H (more than 50% control value) |  |  |  |  |  |  |  |  |  |
| CCn1c(-c2c(F)cc(F)cc2F)c(C(OC)N(C)C(C)C)cc(Cl)c1=O (centres unmarked) [compound 81] | L (50% or less control value) | L (50% or less control value) | H (more than 50% control value) | L (50% or less control value) | H (more than 50% control value) | L (50% or less control value) | L (50% or less control value) | L (50% or less control value) |  |  |  |  |  |  |  |  |  |
| CCn1c(-c2c(F)cc(OC)cc2F)c(CN(OC)C(C)=O)cc(Cl)c1=O [compound 130] | H (more than 50% control value) | H (more than 50% control value) | H (more than 50% control value) | H (more than 50% control value) | L (50% or less control value) | L (50% or less control value) | L (50% or less control value) | H (more than 50% control value) |  |  |  |  |  |  |  |  |  |
| CCn1c(-c2ccc(OC)cc2)c(C(O)C(C)C)cc(Cl)c1=O (centres unmarked) [compound 246] |  |  |  |  |  |  |  |  | L (50% or less control value) | H (more than 50% control value) | L (50% or less control value) | L (50% or less control value) | L (50% or less control value) | L (50% or less control value) | L (50% or less control value) | H (more than 50% control value) |  |
| CCn1c(-c2ccc(C#N)cc2)c(C(=O)C(C)C)cc(Cl)c1=O [compound 234] |  |  |  |  |  |  |  |  | L (50% or less control value) | H (more than 50% control value) | L (50% or less control value) | L (50% or less control value) | L (50% or less control value) | L (50% or less control value) | L (50% or less control value) | L (50% or less control value) |  |
| Cc1cc(CC(C)C)c(-c2c(F)cc(F)cc2F)n(CC(F)F)c1=O [compound 307] |  |  |  |  |  |  |  |  | H (more than 50% control value) | H (more than 50% control value) | L (50% or less control value) | L (50% or less control value) | H (more than 50% control value) | H (more than 50% control value) | L (50% or less control value) | H (more than 50% control value) |  |
| CCn1c(-c2c(F)cccc2F)c(CO)cc(Cl)c1=O [compound 44] | L (50% or less control value) | H (more than 50% control value) | L (50% or less control value) | L (50% or less control value) | H (more than 50% control value) | L (50% or less control value) | L (50% or less control value) | H (more than 50% control value) |  |  |  |  |  |  |  |  |  |
| CCCCCCCCCc1cc(Cl)c(=O)n(CC)c1-c1ccc(F)cc1Cl [compound 274] |  |  |  |  |  |  |  |  | L (50% or less control value) | L (50% or less control value) | L (50% or less control value) | L (50% or less control value) | L (50% or less control value) | H (more than 50% control value) | L (50% or less control value) | L (50% or less control value) |  |
| CCOC(C)(c1cc(Cl)c(=O)n(CC)c1-c1c(F)cc(F)cc1F)C(C)C (centres unmarked) [compound 228] |  |  |  |  |  |  |  |  | H (more than 50% control value) | H (more than 50% control value) | H (more than 50% control value) | H (more than 50% control value) | H (more than 50% control value) | H (more than 50% control value) | L (50% or less control value) | H (more than 50% control value) |  |
| COCCOc1cc(F)c(-c2c(C(C)(C)C)cc(Cl)c(=O)n2C)c(F)c1 [compound 84] | H (more than 50% control value) | H (more than 50% control value) | L (50% or less control value) | L (50% or less control value) | L (50% or less control value) | L (50% or less control value) | L (50% or less control value) | L (50% or less control value) |  |  |  |  |  |  |  |  |  |
